Laboratory results from PubChem BioAssay (NCI).
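A five-concentration, 48-hour dose response in 96-well plates underlies each endpoint, interpolated linearly between surrounding concentrations. TGI: concentration producing complete growth inhibition.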

Tests used:
Assay in all cases: growth of human tumour cells (NCI), 48 h
HCT-15 colon = test system: HCT-15 colon
DMS 114 small cell lung = test system: DMS 114 small cell lung
SK-MEL-28 melanoma = test system: SK-MEL-28 melanoma
SNB-78 CNS = test system: SNB-78 CNS
COLO 205 colon = test system: COLO 205 colon
ACHN renal = test system: ACHN renal
DMS 273 small cell lung = test system: DMS 273 small cell lung
HL-60(TB) leukemia = test system: HL-60(TB) leukemia
HCT-116 colon = test system: HCT-116 colon
MOLT-4 leukemia = test system: MOLT-4 leukemia
SK-MEL-2 melanoma = test system: SK-MEL-2 melanoma
SF-268 CNS = test system: SF-268 CNS
MALME-3M melanoma = test system: MALME-3M melanoma
SF-295 CNS = test system: SF-295 CNS
EKVX NSCLC = test system: EKVX NSCLC
NCI-H226 lung = test system: NCI-H226 lung
NCI-H460 lung = test system: NCI-H460 lung
HOP-18 NSCLC = test system: HOP-18 NSCLC
SNB-19 CNS = test system: SNB-19 CNS
KM20L2 colon = test system: KM20L2 colon
SN12C renal = test system: SN12C renal
M14 melanoma = test system: M14 melanoma
SW-620 colon = test system: SW-620 colon
HOP-92 NSCLC = test system: HOP-92 NSCLC
HOP-62 NSCLC = test system: HOP-62 NSCLC
RXF 393 renal = test system: RXF 393 renal
UO-31 renal = test system: UO-31 renal
LXFL 529 NSCLC = test system: LXFL 529 NSCLC
NCI-H23 lung = test system: NCI-H23 lung
KM12 colon = test system: KM12 colon
A549 NSCLC = test system: A549 NSCLC
HT29 colon = test system: HT29 colon
CCRF-CEM leukemia = test system: CCRF-CEM leukemia
TK-10 renal = test system: TK-10 renal
U251 CNS = test system: U251 CNS
IGROV1 ovarian = test system: IGROV1 ovarian
OVCAR-3 ovarian = test system: OVCAR-3 ovarian
DLD-1 colon = test system: DLD-1 colon
786-0 renal = test system: 786-0 renal
XF 498 CNS = test system: XF 498 CNS
K-562 leukemia = test system: K-562 leukemia
OVCAR-8 ovarian = test system: OVCAR-8 ovarian
SNB-75 CNS = test system: SNB-75 CNS
HCC-2998 colon = test system: HCC-2998 colon
UACC-257 melanoma = test system: UACC-257 melanoma
OVCAR-4 ovarian = test system: OVCAR-4 ovarian
LOX IMVI melanoma = test system: LOX IMVI melanoma
UACC-62 melanoma = test system: UACC-62 melanoma
SR leukemia = test system: SR leukemia
RPMI-8226 leukemia = test system: RPMI-8226 leukemia
SF-539 CNS = test system: SF-539 CNS
M19-MEL melanoma = test system: M19-MEL melanoma
NCI-H522 lung = test system: NCI-H522 lung
A498 renal = test system: A498 renal
SK-OV-3 ovarian = test system: SK-OV-3 ovarian
OVCAR-5 ovarian = test system: OVCAR-5 ovarian
SK-MEL-5 melanoma = test system: SK-MEL-5 melanoma
RXF-631 renal = test system: RXF-631 renal
CAKI-1 renal = test system: CAKI-1 renal

C[N+]1(C)CCCC1C(=O)[O-] (stereo unspecified)
TGI (HCT-15 colon): > 100 µM | TGI (DMS 114 small cell lung): > 100 µM | TGI (SK-MEL-28 melanoma): > 100 µM | TGI (SNB-78 CNS): > 100 µM | TGI (COLO 205 colon): > 100 µM | TGI (ACHN renal): > 100 µM | TGI (DMS 273 small cell lung): > 100 µM | TGI (HL-60(TB) leukemia): > 100 µM | TGI (HCT-116 colon): > 100 µM | TGI (MOLT-4 leukemia): > 100 µM | TGI (SK-MEL-2 melanoma): > 100 µM | TGI (SF-268 CNS): > 100 µM | TGI (MALME-3M melanoma): > 100 µM | TGI (SF-295 CNS): > 100 µM | TGI (EKVX NSCLC): > 100 µM | TGI (NCI-H226 lung): > 100 µM | TGI (NCI-H460 lung): > 100 µM | TGI (HOP-18 NSCLC): > 100 µM | TGI (SNB-19 CNS): > 100 µM | TGI (KM20L2 colon): > 100 µM | TGI (SN12C renal): > 100 µM | TGI (M14 melanoma): > 100 µM | TGI (SW-620 colon): > 100 µM | TGI (HOP-92 NSCLC): > 100 µM | TGI (HOP-62 NSCLC): > 100 µM | TGI (RXF 393 renal): > 100 µM | TGI (UO-31 renal): > 100 µM | TGI (LXFL 529 NSCLC): > 100 µM | TGI (NCI-H23 lung): > 100 µM | TGI (KM12 colon): > 100 µM | TGI (A549 NSCLC): > 100 µM | TGI (HT29 colon): > 100 µM | TGI (CCRF-CEM leukemia): > 100 µM | TGI (TK-10 renal): > 100 µM | TGI (U251 CNS): > 100 µM | TGI (IGROV1 ovarian): > 100 µM | TGI (OVCAR-3 ovarian): > 100 µM | TGI (DLD-1 colon): > 100 µM | TGI (786-0 renal): > 100 µM | TGI (XF 498 CNS): > 100 µM | TGI (K-562 leukemia): > 100 µM | TGI (OVCAR-8 ovarian): > 100 µM | TGI (SNB-75 CNS): > 100 µM | TGI (HCC-2998 colon): > 100 µM | TGI (UACC-257 melanoma): > 100 µM | TGI (OVCAR-4 ovarian): > 100 µM | TGI (LOX IMVI melanoma): > 100 µM | TGI (UACC-62 melanoma): > 100 µM | TGI (SR leukemia): > 100 µM | TGI (RPMI-8226 leukemia): > 100 µM | TGI (SF-539 CNS): > 100 µM | TGI (M19-MEL melanoma): > 100 µM | TGI (NCI-H522 lung): > 100 µM | TGI (A498 renal): > 100 µM | TGI (SK-OV-3 ovarian): > 100 µM

CCN(CC)CCNC(=O)c1ccccc1NC(=O)C(=O)Nc1ccccc1C(=O)NCCN(CC)CC
TGI (HCT-15 colon): > 100 µM | TGI (DMS 114 small cell lung): 79.7 µM | TGI (SK-MEL-28 melanoma): > 100 µM | TGI (SNB-78 CNS): > 100 µM | TGI (COLO 205 colon): 35.8 µM | TGI (ACHN renal): > 100 µM | TGI (DMS 273 small cell lung): > 100 µM | TGI (HL-60(TB) leukemia): 32.4 µM | TGI (HCT-116 colon): 43.3 µM | TGI (MOLT-4 leukemia): 74.4 µM | TGI (SK-MEL-2 melanoma): > 100 µM | TGI (SF-268 CNS): > 100 µM | TGI (MALME-3M melanoma): 37.7 µM | TGI (SF-295 CNS): > 100 µM | TGI (EKVX NSCLC): > 100 µM | TGI (NCI-H226 lung): > 100 µM | TGI (NCI-H460 lung): > 100 µM | TGI (HOP-18 NSCLC): > 100 µM | TGI (SNB-19 CNS): > 100 µM | TGI (KM20L2 colon): > 100 µM | TGI (OVCAR-5 ovarian): > 100 µM | TGI (SN12C renal): > 100 µM | TGI (M14 melanoma): 33.9 µM | TGI (SW-620 colon): 42 µM | TGI (HOP-92 NSCLC): 98.5 µM | TGI (HOP-62 NSCLC): > 100 µM | TGI (UO-31 renal): > 100 µM | TGI (NCI-H23 lung): > 100 µM | TGI (KM12 colon): > 100 µM | TGI (A549 NSCLC): > 100 µM | TGI (HT29 colon): > 100 µM | TGI (CCRF-CEM leukemia): 71.9 µM | TGI (TK-10 renal): > 100 µM | TGI (U251 CNS): > 100 µM | TGI (IGROV1 ovarian): > 100 µM | TGI (OVCAR-3 ovarian): > 100 µM | TGI (DLD-1 colon): > 100 µM | TGI (786-0 renal): 42.6 µM | TGI (K-562 leukemia): 42.1 µM | TGI (OVCAR-8 ovarian): > 100 µM | TGI (SNB-75 CNS): > 100 µM | TGI (HCC-2998 colon): > 100 µM | TGI (UACC-257 melanoma): 35.5 µM | TGI (OVCAR-4 ovarian): > 100 µM | TGI (LOX IMVI melanoma): 73.6 µM | TGI (UACC-62 melanoma): > 100 µM | TGI (SK-MEL-5 melanoma): 35.6 µM | TGI (RXF-631 renal): > 100 µM | TGI (SR leukemia): 47.6 µM | TGI (RPMI-8226 leukemia): > 100 µM | TGI (SF-539 CNS): 62.2 µM | TGI (M19-MEL melanoma): 57.5 µM | TGI (NCI-H522 lung): > 100 µM | TGI (CAKI-1 renal): > 100 µM | TGI (A498 renal): > 100 µM | TGI (SK-OV-3 ovarian): > 100 µM
